From US8389011B2, “Pharmaceutical compositions of cholesteryl ester transfer protein inhibitors” (Bend Research, Inc., priority 2000, dated 2013)

Assay: Solubility in water
Assay type: physicochemical
Conditions: aqueous solubility determined at about 22° C. unless otherwise specified, read-out: solubility in water
Excerpt: The invention is useful for CETP inhibitors which have sufficiently low aqueous solubility, low bioavailability or slow rate of absorption such that it is desirable to increase their concentration in an aqueous environment of use. Therefore, anytime one finds it desirable to raise the aqueous concentration of the CETP inhibitor in a use environment, the invention will find utility.

solubility, < 1 µg/mL:
COC(=O)N(Cc1cc(C(F)(F)F)cc(C(F)(F)F)c1)[C@H]1C[C@@H](C2CC2)N(C(=O)OC(C)C)c2ccc(C(F)(F)F)cc21 [Drug 8, [2S,4S]4-[(3,5-bis-trifluoromethyl-benzyl)-methoxycarbonyl-amino]-2-cyclopropyl-6-trifluoromethyl-3,4-dihydro-2H-quinoline-1-carboxylic acid isopropyl ester]
CC(C)c1cc2c(c(-c3ccc(F)cc3)c1[C@@H](F)c1ccc(C(F)(F)F)cc1)[C@@H](O)CC1(CCC1)C2 [Drug 10, (4′S)-5′-(4-fluorophenyl)-6′-[(S)-fluoro[4-(trifluoromethyl)phenyl]methyl]-3′,4′-dihydro-7′-(1-methylethyl)-spiro[cyclobutane-1,2′(1′H)-naphthalen]-4′-ol]
CCc1cc(Oc2cccc(N(Cc3cccc(OC(F)(F)C(F)F)c3)C[C@@H](O)C(F)(F)F)c2)ccc1Cl [Drug 11, (2R)-3-[[3-(4-chloro-3-ethylphenoxy)phenyl][[3-(1,1,2,2-tetrafluoroethoxy)phenyl]methyl]amino]-1,1,1-trifluoro-2-propanol]
CC[C@@H]1C[C@H](N(Cc2cc(C(F)(F)F)cc(C(F)(F)F)c2)C(=O)OC)c2cc(C(F)(F)F)ccc2N1C(=O)OC(C)C [Drug 12, [2R,4S]4-[(3,5-bis-trifluoromethyl-benzyl)-methoxycarbonyl-amino]-2-ethyl-6-trifluoromethyl-3,4-dihydro-2H-quinoline-1-carboxylic acid isopropyl ester]
